Results from patent publication US20090176773A1, “Non-Peptidic Inhibitors of AKAP/PKA Interaction” (FORSCHUNGSVERBUND BERLIN E.V., priority 2005, published 2009).
“Also recorded” adds a separate entry of the source.

Biological target: AKAP18delta-RIIalpha interaction (GST-AKAP18delta binding to plate-bound PKA-RIIalpha) (Rattus norvegicus, UniProt P12368+Q6JP77)
Assay: ELISA for quantitative detection of protein-protein binding between PKA-RIIalpha and GST-AKAP18delta (library screening, validation, IC50)
Conditions: not given
Source text: (§1) ELISA is a method wherein an antigen is detected with a specific antibody. Detection proceeds via an enzyme linked covalently with one of the binding partners, which enzyme catalyzes chromogen conversion.
(§2) Because one of the two binding partners is immobilized, removal of unbound antibodies or antigens is very easy. Detection proceeds via observing the intensity (I) of chemiluminescence using a photomultiplier in a special reading device (ELISA reader). The output of the measured values is in relative light units (RLU).
(§3) In the present case, the point was to investigate whether binding of one protein (PKA) to another (AKAP18delta-GST) would be inhibited by the presence of small organic molecules. A sandwich ELISA was therefore developed wherein the RIIalpha PKA subunit, to which AKAP proteins bind, was bound on 384-well microtiter plates (MTP).
(§4) The white color improves detection by reflection of the chemiluminescence being formed and simultaneously prevents illumination of neighboring wells. Free binding sites were blocked after binding (see below), and the second GST-AKAP18delta protein was added to […]. Subsequently, bound GST-AKAP18delta was quantified via antibodies and chemiluminescence. The principle of ELISA is illustrated in FIG. 4.
(§5) PBS (phosphate-buffered saline, pH 7.4) was used as buffer system to maintain a physiological pH value for the proteins used. The buffer was added with a mix of protease inhibitors and PMSF as non-specific protease inhibitor to delay protein degradation. In addition, DTT was employed to protect the proteins from oxidation.
(§6) The blocking solution additionally included 0.3% skim milk powder to saturate MTP non-specific binding sites with milk proteins included therein.
(§7) To adapt the binding curves to the measured values (see results), the one-site binding model was used as a basis, which model applies to binding of GST-AKAP18delta to RIIalpha. The corresponding formula is
(§8) The measured values for IC50 calculation were adapted to the one-site competition model. It was established that the bottom asymptote should be greater than 0.0 to rule out faulty adaptations with negative binding values. The formula used is
(§9) The FMP20000 substance library was used for screening, i.e., systematic, partially automated search for potential inhibitors of AKAP18delta-RIIalpha binding. […] The substances of the library had been selected according to specific criteria which also apply to previously known pharmacological active substances. Said criteria also include Lipinski's Rule (cf. discussion). To prepare an MTP for screening, each of 380 wells was filled with 20 μl of RIIalpha solution with a concentration of 0.75 ng/μl (in binding buffer), using an electronically controlled 24-channel pipette (Eppendorf). […] Following centrifugation of the MTPs (1 min at 2500×g), the MTPs were incubated at room temperature for at least 1 h. After removing the protein solution by tapping on a paper stack, non-specific binding sites were blocked with 100 μl of blocking solution/well for at least 1 h at room temperature.
(§10) After completion of the washing operation, solution residues possibly still present were tapped off on a paper stack.
(§11) In the next step, the MTPs were prepared for automated pipetting of the low-molecular weight substances. Each well was supplied with 10 μl of blocking solution or controls pipetted in accordance with the pipetting scheme (Table 1.2). […] The plates were briefly centrifuged.
(§12) Each of the control columns 1 and 24 received 0.5 μl of DMSO, so that the controls were added with the same amount of DMSO as the other samples.
(§13) Following centrifugation of the screening MTPs, AKAP18delta-GST (8 ng/μl in blocking solution) was added in accordance with the pipetting scheme (Table 2.2), centrifuged, and incubated for at least 30 min at room temperature.

AKAP18delta-RIIalpha interaction (GST-AKAP18delta binding to plate-bound PKA-RIIalpha) (Rattus norvegicus, UniProt P12368+Q6JP77), sequence (P12368 2-401): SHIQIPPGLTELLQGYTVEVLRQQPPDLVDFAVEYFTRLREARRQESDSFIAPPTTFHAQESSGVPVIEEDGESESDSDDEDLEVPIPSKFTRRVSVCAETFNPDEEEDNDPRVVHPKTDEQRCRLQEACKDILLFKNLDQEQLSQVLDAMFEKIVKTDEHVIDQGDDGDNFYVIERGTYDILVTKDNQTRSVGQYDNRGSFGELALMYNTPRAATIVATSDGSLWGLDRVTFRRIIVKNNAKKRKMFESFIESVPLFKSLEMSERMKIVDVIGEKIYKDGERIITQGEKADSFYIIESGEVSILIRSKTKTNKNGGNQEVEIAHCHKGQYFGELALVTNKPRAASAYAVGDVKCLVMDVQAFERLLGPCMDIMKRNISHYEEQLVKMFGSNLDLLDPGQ
AKAP18delta-RIIalpha interaction (GST-AKAP18delta binding to plate-bound PKA-RIIalpha) (Rattus norvegicus, UniProt P12368+Q6JP77), sequence (Q6JP77 whole entry): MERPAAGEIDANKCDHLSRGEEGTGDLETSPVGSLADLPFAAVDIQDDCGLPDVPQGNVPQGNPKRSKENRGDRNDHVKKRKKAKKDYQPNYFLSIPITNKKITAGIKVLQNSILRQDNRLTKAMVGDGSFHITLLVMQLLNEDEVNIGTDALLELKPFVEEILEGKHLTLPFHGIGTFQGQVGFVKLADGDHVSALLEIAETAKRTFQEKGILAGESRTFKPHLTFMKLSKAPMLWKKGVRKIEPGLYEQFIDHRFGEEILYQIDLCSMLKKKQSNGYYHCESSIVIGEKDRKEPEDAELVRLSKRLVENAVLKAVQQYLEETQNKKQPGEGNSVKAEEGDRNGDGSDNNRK

Compound	Ratio IC50 (comp./990) in Screening no. 2	Ratio IC50 (comp./990) in Screening no. 3	Ratio IC50 (comp./990) in Screening no. 1
C/N=C(/NCc1ccccc1)SCc1cccc2ccccc12 [SM71]	0.41	0.45	–
C/N=C(/NC1=NCCS1)SCc1cccc2ccccc12 [SM65]	0.14	0.39	–
C/N=C(/NC(C)c1ccccc1)SCc1ccc2ccccc2c1 (centres unmarked) [SM70]	79.84	–	–
c1ccc2c(CN/C(=N\C3CCCCC3)SCc3cccc4ccccc34)cccc2c1 [JG25]	–	0.26	–
c1ccc2c(C/N=C(\NC3CCCCC3)SCc3cccc4ccccc34)cccc2c1 [SM63]	0.55	1.13	–
CN/C(=N\Cc1cccc2ccccc12)SCc1cccc2ccccc12 [SM61]	0.16	0.32	–
S=C(NCCN1CCCCC1)Nc1cccc2ccccc12 [SM52]	962.65	–	–
CCNC(=N)SCc1cccc2ccccc12 [SM54]	6.43	–	–
N=C(NN)SCc1cccc2ccccc12 [SM55]	2.45	–	–
CN/C(=N\c1cccc2cc3ccccc3cc12)SCc1cccc2ccccc12 [JG31]	–	8.29	–
N=C(N)NCc1cccc2ccccc12 [SM51]	88.35	–	–
S=C(NCc1cccc2ccccc12)NC1CCCCC1 [SM59]	343.88	–	–
c1ccc(C/N=C(\NCc2cccc3ccccc23)SCc2cccc3ccccc23)cc1 [JG28]	–	0.39	–
C/N=C(/NC1=NCCS1)SCc1ccc2ccccc2c1 [SM66]	30.29	–	–
CC(C)/N=C(\NCc1cccc2ccccc12)SCc1cccc2ccccc12 [JG26]	–	0.87	–
N=C(NCc1ccccc1)SCc1cccc2ccccc12 [SM53]	3.20	1.13	–
C/N=C(/NC(C)c1ccccc1)SCc1cccc2ccccc12 (centres unmarked) [SM69]	1.76	–	–
CNC(=S)NCc1cccc2ccccc12 [SM57]	4.16	–	–
CC(C)(C)/N=C(\NCc1cccc2ccccc12)SCc1cccc2ccccc12 [JG27]	–	1.03	–
S=C(NCCN1CCCCC1)NCc1cccc2ccccc12 [SM56]	592.04	–	–
C/N=C(/NC)SCc1cccc2ccccc12 [SM25]	1.55	0.68	0.97
C/N=C(/NCCCc1ccccc1)SCc1cccc2ccccc12 [SM67]	0.51	1.10	–
C/N=C(/NCCCc1ccccc1)SCc1ccc2ccccc2c1 [SM68]	86.51	–	–
CC(C)(C)/N=C(\NCc1ccccc1)SCc1cccc2ccccc12 [JG20]	–	0.74	–
C/N=C(/NCc1ccccc1)SCc1ccc2ccccc2c1 [SM72]	55.39	–	–
CC(C)(C)/N=C(\NC1=NCCS1)SCc1cccc2ccccc12 [JG21]	–	1.97	–

Same assay, conditions: Table C; screening no. 2; relative to substance 990

Compound	Ratio IC50 (comp./990) in Screening no. 2
CCNC(=S)NCc1cccc2ccccc12 [SM58]	986.12

Same assay, conditions: Table C; screening no. 3

Compound	IC50 in Screening no. 3
C/N=C(\NCc1cccc2ccccc12)SCc1cccc2ccccc12 [JG23]	bad

Same assay, conditions: validation, FIG. 15, 50 nM GST-AKAP18delta

Compound	Concentration dependence of the inhibitory effect in validation (dilution series)
CC(C)C[C@H](NC(=O)[C@H](CCCNC(=N)N)NC(=O)[C@@H](NC(=O)[C@H](CC(C)C)NC(=O)[C@H](CCC(=O)O)NC(=O)[C@H](C)NC(=O)[C@H](CC(=O)O)NC(=O)[C@H](CCC(=O)O)NC(=O)[C@@H]1CCCN1)C(C)C)C(=O)N[C@@H](CO)C(=O)N[C@@H](CCCCN)C(=O)N[C@@H](CCCNC(=N)N)C(=O)N[C@@H](CC(C)C)C(=O)N[C@H](C(=O)N[C@@H](CCC(=O)O)C(=O)N[C@@H](CC(N)=O)C(=O)N[C@@H](C)C(=O)N[C@H](C(=O)N[C@@H](CCC(=O)O)C(=O)N[C@@H](CCCCN)C(=O)N[C@@H](C)C(=O)N[C@H](C(=O)N[C@@H](CCC(N)=O)C(=O)N[C@@H](CCC(N)=O)C(=O)N[C@@H](Cc1ccc(O)cc1)C(N)=O)C(C)C)C(C)C)C(C)C [Compound L314E, reference compound]	inhibition of binding in a concentration-dependent fashion
COc1ccc(CSC(=N)N)cc1Br [Compound 2348]	non-active

Biological target: T1, AKAP18delta-RIIalpha interaction (GST-AKAP18delta binding to plate-bound PKA-RIIalpha) (UniProt P13861+Q6JP77)
T1 construct: made in house; host or cells: E. coli BL21(DE3), pGEX-4T3 vector (GST-AKAP18delta only)
Assay: as above
Conditions: increasing peptide concentrations, FIG. 11
Source text: as §1, §2, §3, §4, §5, §6, §7, §8, §9, §10, §11, §12, §13

T1 sequence (Q6JP77 whole entry): as above
T1 sequence (P13861 whole entry): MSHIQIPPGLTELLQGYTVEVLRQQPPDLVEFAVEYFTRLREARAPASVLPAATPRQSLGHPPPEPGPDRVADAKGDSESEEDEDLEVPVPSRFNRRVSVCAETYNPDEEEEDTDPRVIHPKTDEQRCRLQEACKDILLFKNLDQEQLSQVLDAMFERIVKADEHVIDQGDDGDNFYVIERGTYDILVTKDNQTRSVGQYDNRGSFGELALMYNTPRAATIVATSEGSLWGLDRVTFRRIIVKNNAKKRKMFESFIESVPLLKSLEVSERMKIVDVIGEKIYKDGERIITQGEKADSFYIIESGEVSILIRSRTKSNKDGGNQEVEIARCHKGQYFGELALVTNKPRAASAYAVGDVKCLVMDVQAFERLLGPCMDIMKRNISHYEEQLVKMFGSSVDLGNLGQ

Compound	Inhibition of GST-AKAP18delta binding to RIIalpha by peptides
CC(C)C[C@H](NC(=O)[C@H](CCCNC(=N)N)NC(=O)[C@@H](NC(=O)[C@H](CC(C)C)NC(=O)[C@H](CCC(=O)O)NC(=O)[C@H](C)NC(=O)[C@H](CC(=O)O)NC(=O)[C@H](CCC(=O)O)NC(=O)[C@@H]1CCCN1)C(C)C)C(=O)N[C@@H](CO)C(=O)N[C@@H](CCCCN)C(=O)N[C@@H](CCCNC(=N)N)C(=O)N[C@@H](CC(C)C)C(=O)N[C@H](C(=O)N[C@@H](CCC(=O)O)C(=O)N[C@@H](CC(N)=O)C(=O)N[C@@H](C)C(=O)N[C@H](C(=O)N[C@@H](CCC(=O)O)C(=O)N[C@@H](CCCCN)C(=O)N[C@@H](C)C(=O)N[C@H](C(=O)N[C@@H](CCC(N)=O)C(=O)N[C@@H](CCC(N)=O)C(=O)N[C@@H](Cc1ccc(O)cc1)C(N)=O)C(C)C)C(C)C)C(C)C [Compound L314E, reference compound]	stronger inhibition of binding; also recorded: competitive inhibition of binding

Tested on: vasopressin (AVP)-dependent redistribution of the aquaporin-2 (AQP2) water channel in renal principal cells (IMCD cells)
Assay: AVP-induced redistribution of AQP2 in primarily cultured IMCD cells (immunofluorescence, laser scanning microscope)
Type: cell-based, rat
Conditions: FIG. 18 and 21
Procedure: Initially, collecting duct cells from the inner medulla of rat kidneys (IMCD cells) can be stimulated with AVP in the presence or absence of the substances so as to stimulate AQP2 translocation. Thereafter, immunofluorescence staining can be performed, wherein the cells—following incubation—are fixed and made permeable. Using antibodies coupled to fluorescent dyes, the intracellular localization of AQP2 can subsequently be determined under a fluorescence microscope. In this way it is possible to investigate the influence of the substances on the presumably AKAP18delta-dependent translocation of AQP2.
Inhibition of the vasopressin (AVP)-dependent redistribution of the aquaporin-2 (AQP2) water channel in renal principal cells by the substances specified (see Table B; concentrations of inhibitors in μM). Primarily cultured principal cells from the inner medulla of rat kidneys (IMCD cells) represent a model for the AVP-induced translocation of AQP2. Said redistribution is the molecular basis of AVP-induced water reabsorption in the kidneys. AQP2 was detected by means of a specific antiserum and Cy3-labelled secondary antibodies in untreated cells (control) and in cells treated with AVP or substances, using a laser scanning microscope (Tamma et al., 2003; Henn et al., 2004).
Effect of the low-molecular weight substances 18882, 990 and 990 derivatives SM61 and SM65 on AVP-induced redistribution of AQP2 in IMCD cells (see FIG. 18). The structures and chemical properties of the substances are illustrated in Tables A, B and C (concentrations of inhibitors in μM). AQP2 was detected by means of a specific antiserum and Cy3-labelled secondary antibodies in untreated cells (control) and in cells treated with AVP or substances, using a laser scanning microscope (Tamma et al., 2003; Henn et al., 2004). […] In contrast, the substances 18882 and the 990 derivative SM65 have no influence on AVP-induced AQP2 redistribution at the concentrations used.

Compound	Effect on AVP-induced redistribution of AQP2
C/N=C(/NC1=NCCS1)SCc1cccc2ccccc12 [SM65]	no influence
CN/C(=N\Cc1cccc2ccccc12)SCc1cccc2ccccc12 [SM61]	inhibits the AVP-induced redistribution of AQP2
